Test results reported in ChEMBL document CHEMBL4765259, “Synthesis and biological evaluation of novel shikonin-benzo[b]furan derivatives as tubulin polymerization inhibitors targeting the colchicine binding site” (Eur J Med Chem, 2020).
Each block holds one molecule with its values, some of them ahead of it.

What was measured:
K562 [1] = assay: cells; settings: Homo sapiens, K562, 48 h
Description: Antiproliferative activity against human K562 cells incubated for 48 hrs by MTT assay

K562 [2] = assay: Antiproliferative activity against drug resistant human K562 cells incubated for 48 hrs by MTT assay; assay type: functional, cell-based; settings: K562, 48 h
A549 = assay: cells; settings: Homo sapiens, A549, 48 h
HepG2 = assay: Antiproliferative activity against human HepG2 cells incubated for 48 hrs by MTT assay; assay type: functional, cell-based; settings: HepG2, 48 h
[3] = Antiproliferative activity against human HEK293T cells incubated for 48 hrs by MTT assay; assay type: cell-based, HEK-293T
MCF7 [4] = assay: cells; settings: Homo sapiens, MCF7, 48 h
Description: Antiproliferative activity against drug-resistant human MCF7 cells incubated for 48 hrs by MTT assay

[5] = Inhibition of tubulin polymerization (unknown origin) measured every 2 mins for 60 mins by spectrophotometric method; parameters: species or system Homo sapiens
HT-29 [6] = assay: Antiproliferative activity against human HT29 cells incubated for 48 hrs by MTT assay; assay type: functional, cell-based; settings: HT-29, 48 h
Homo sapiens [7] = organism: Homo sapiens; assay: Inhibition of [3H]colchicine binding to tubulin (unknown origin) at 2 uM incubated for 2 hrs by scintillation counting method relative to control
MCF7 [8] = assay: cells; settings: Homo sapiens, MCF7, 48 h; remark: listed apart in the source
[9] = Antiproliferative activity against human LO2 cells incubated for 48 hrs by MTT assay; assay type: cell-based, L02
Homo sapiens [10] = organism: Homo sapiens; assay: Inhibition of [3H]colchicine binding to tubulin (unknown origin) at 4 uM incubated for 2 hrs by scintillation counting method relative to control
MDA-MB-231 = assay: cells; settings: Homo sapiens, MDA-MB-231, 48 h
HCT-116 = assay: cells; settings: Homo sapiens, HCT-116, 48 h
Description: Antiproliferative activity against human HCT116 cells incubated for 48 hrs by MTT assay

HT-29 [11] = assay: Induction of apoptosis in human HT-29 cells assessed as late apoptotic cells at […] measured after 24 hrs by Annexin V-FITC/propidium iodide staining based flow cytometry (reference value: 0.5 %); assay type: functional; settings: dose 0.25 µM
HT-29 [12] = assay: Cell cycle arrest in human HT29 cells assessed as cell accumulation at G1 phase at 0.5 uM incubated for 24 hrs by propidium iodide staining based flow cytometry (reference value: 70.33 %); assay type: functional
HT-29 [13] = assay: Cell cycle arrest in human HT29 cells assessed as cell accumulation at G1 phase at 1 uM incubated for 24 hrs by propidium iodide staining based flow cytometry (reference value: 70.33 %); assay type: functional
HT-29 [14] = assay: Induction of apoptosis in human HT-29 cells assessed as necrotic cells at […] measured after 24 hrs by Annexin V-FITC/propidium iodide staining based flow cytometry (reference value: 0.7 %); assay type: functional; settings: dose 0.25 µM
HT-29 [15] = assay: Induction of apoptosis in human HT-29 cells assessed as necrotic cells at 0.5 uM measured after 24 hrs by Annexin V-FITC/propidium iodide staining based flow cytometry (reference value: 0.7 %); assay type: functional
HT-29 [16] = assay: Cell cycle arrest in human HT29 cells assessed as cell accumulation at G1 phase at […] incubated for 24 hrs by propidium iodide staining based flow cytometry (reference value: 70.33 %); assay type: functional; settings: dose 0.25 µM
HT-29 [17] = assay: Cell cycle arrest in human HT29 cells assessed as cell accumulation at S phase at 1 uM incubated for 24 hrs by propidium iodide staining based flow cytometry (reference value: 17.15 %); assay type: functional
HT-29 [18] = assay: Induction of apoptosis in human HT-29 cells assessed as late apoptotic cells at 0.5 uM measured after 24 hrs by Annexin V-FITC/propidium iodide staining based flow cytometry (reference value: 0.5 %); assay type: functional
HT-29 [19] = assay: Cell cycle arrest in human HT29 cells assessed as cell accumulation at S phase at 0.5 uM incubated for 24 hrs by propidium iodide staining based flow cytometry (reference value: 17.15 %); assay type: functional
HT-29 [20] = assay: Induction of apoptosis in human HT-29 cells assessed as viable cells at […] measured after 24 hrs by Annexin V-FITC/propidium iodide staining based flow cytometry (reference value: 97.7 %); assay type: functional; settings: dose 0.25 µM, read-out: Activity
HT-29 [21] = assay: Cell cycle arrest in human HT29 cells assessed as cell accumulation at G2 phase at […] incubated for 24 hrs by propidium iodide staining based flow cytometry (reference value: 12.53 %); assay type: functional; settings: dose 0.25 µM
HT-29 [22] = assay: Cell cycle arrest in human HT29 cells assessed as cell accumulation at G2 phase at 1 uM incubated for 24 hrs by propidium iodide staining based flow cytometry (reference value: 12.53 %); assay type: functional
HT-29 [23] = assay: Induction of apoptosis in human HT-29 cells assessed as viable cells at 1 uM measured after 24 hrs by Annexin V-FITC/propidium iodide staining based flow cytometry (reference value: 97.7 %); assay type: functional; settings: read-out: Activity
HT-29 [24] = assay: Induction of apoptosis in human HT-29 cells assessed as viable cells at 0.5 uM measured after 24 hrs by Annexin V-FITC/propidium iodide staining based flow cytometry (reference value: 97.7 %); assay type: functional; settings: read-out: Activity
HT-29 [25] = assay: Induction of apoptosis in human HT-29 cells assessed as early apoptotic cells at […] measured after 24 hrs by Annexin V-FITC/propidium iodide staining based flow cytometry (reference value: 1.1 %); assay type: functional; settings: dose 0.25 µM
HT-29 [26] = assay: Induction of apoptosis in human HT-29 cells assessed as necrotic cells at 1 uM measured after 24 hrs by Annexin V-FITC/propidium iodide staining based flow cytometry (reference value: 0.7 %); assay type: functional
HT-29 [27] = assay: Induction of apoptosis in human HT-29 cells assessed as early apoptotic cells at 0.5 uM measured after 24 hrs by Annexin V-FITC/propidium iodide staining based flow cytometry (reference value: 1.1 %); assay type: functional
HT-29 [28] = assay: Cell cycle arrest in human HT29 cells assessed as cell accumulation at S phase at […] incubated for 24 hrs by propidium iodide staining based flow cytometry (reference value: 17.15 %); assay type: functional; settings: dose 0.25 µM
HT-29 [29] = assay: Cell cycle arrest in human HT29 cells assessed as cell accumulation at G2 phase at 0.5 uM incubated for 24 hrs by propidium iodide staining based flow cytometry (reference value: 12.53 %); assay type: functional
HT-29 [30] = assay: Induction of apoptosis in human HT-29 cells assessed as early apoptotic cells at 1 uM measured after 24 hrs by Annexin V-FITC/propidium iodide staining based flow cytometry (reference value: 1.1 %); assay type: functional
HT-29 [31] = assay: Induction of apoptosis in human HT-29 cells assessed as late apoptotic cells at 1 uM measured after 24 hrs by Annexin V-FITC/propidium iodide staining based flow cytometry (reference value: 0.5 %); assay type: functional

SMILES: COc1ccc(/C=C\c2cc(OC)c(OC)c(OC)c2)cc1O [COMBRETASTATIN A4]
- IC50 (K562 [1]): 0.61 µM
- IC50 (K562 [2]): 6.15 µM
- IC50 (A549): 0.23 µM
- IC50 (HepG2): 0.27 µM
- CC50 at 48 h [3]: 1.44 µM
- IC50 (MCF7 [4]): 0.49 µM
- IC50 [5]: 1.12 µM
- IC50 (HT-29 [6]): 0.31 µM
- inhibition (Homo sapiens [7]): 81.5%
- IC50 (MCF7 [8]): 0.25 µM
- CC50 at 48 h [9]: 0.36 µM
- inhibition (Homo sapiens [10]): 93%
- IC50 (MDA-MB-231): 0.09 µM
- IC50 (HCT-116): 0.11 µM

- IC50 (K562 [1]): 0.21 µM
- IC50 (K562 [2]): 16.3 µM
SMILES: COc1cccc2c1C(=O)c1c(O)c3c(c(O)c1C2=O)C[C@@](O)(C(=O)CO)C[C@@H]3O[C@H]1C[C@H](N)[C@H](O)[C@H](C)O1 [DOXORUBICIN]

- IC50 (K562 [1]): 20.3 µM
- IC50 (K562 [2]): 121 µM
- IC50 (A549): 10.2 µM
- IC50 (HepG2): 2.92 µM
- IC50 (MCF7 [4]): 23.4 µM
- IC50 (HT-29 [6]): 2.8 µM
- IC50 (MCF7 [8]): 5.4 µM
- IC50 (MDA-MB-231): 2.77 µM
- IC50 (HCT-116): 2.47 µM
SMILES: CC(C)=CC[C@@H](O)C1=CC(=O)c2c(O)ccc(O)c2C1=O [SHIKONIN]
- Activity (HT-29 [11]): 0.7%
- Activity (HT-29 [12]): 50.02%
- Activity (HT-29 [13]): 32.11%
- Activity (HT-29 [14]): 1.2%
- Activity (HT-29 [15]): 0.7%
- Activity (HT-29 [16]): 52.4%
- Activity (HT-29 [17]): 43.57%
- CC50 at 48 h [3]: 7 µM
- Activity (HT-29 [18]): 0.4%
- Activity (HT-29 [19]): 27.08%
- viability at […] (HT-29 [20]): 91%
- Activity (HT-29 [21]): 19.5%
- Activity (HT-29 [22]): 24.51%
- viability at 1 µM (HT-29 [23]): 76.7%
- viability at 0.5 µM (HT-29 [24]): 87%
- Activity (HT-29 [25]): 7.1%
- Activity (HT-29 [26]): 0.6%
- CC50 at 48 h [9]: 11.8 µM
- Activity (HT-29 [27]): 11.9%
- Activity (HT-29 [28]): 28.1%
- Activity (HT-29 [29]): 22.9%
- Activity (HT-29 [30]): 19.5%
- Activity (HT-29 [31]): 3.2%
